Consider 3 compounds from US20240254132A1, “COMPOUNDS, COMPOSITIONS AND METHODS” (Denali Therapeutics Inc., priority 2021, published 2024).

Broadly, the IC50 is the concentration that inhibits the measured activity by half.

This experiment relates to IL-1β secretion, THP-1 cells. Nature of the experiment: IL-1β secretion assay in PMA-differentiated THP-1 cells (LPS + nigericin stimulation, IL-1β ELISA). The class given is cell-based. The following applies: Homo sapiens, LPS 25 ng/mL, IL-1β by ELISA. As for the experimental part:
Compounds as provided herein were tested in the following assay. Cell culture medium employed contained RPMI 1640 medium (89%), FBS (10%), Pen/Strep (1%), and 2-mercaptoethanol (0.05 mm). Freezing medium was made up of 90% FBS and 10% DMSO. THP-1 cells were removed from the liquid nitrogen and placed into a 37° C. water bath to thaw, until signs of ice dissipated. The cells were then added to 9 mL of warm cell culture medium and centrifuged for 5 minutes at 1000 rpm. The supernatant was discarded, and the cells were resuspended in new cell culture medium. THP-1 cells were then split and cultured in the cell culture medium, being passaged every 2-3 days with the cell density will be maintained between 5×10^5 and 1.5×10^6 viable cells/mL.
Procedure for […], Secretion Assay in 384-Well Plates
PMA was dissolved in DMSO to make a stock solution at 5 mg/mL and stored in 10 μl aliquots at −20° C. for single use. PMA is added to normal growth medium. LPS was diluted with 1 mL of water solution to provide a 1 mg/mL stock solution and stored in 15 μl aliquots at −20° C. for single use. Nigericin is diluted in ice cold 100% ethanol to 5 mg/mL (6.7 mM) and stored in 75 μL aliquots at −20° C. for single use. Serum-free media contains RPMI 1640 medium (99%), Pen/Strep (1%), and 2-mercaptoethanol (0.05 mM). The two control conditions used to qualify and normalize test compound dose-response curves were as follows: High Control=25 ng/mL LPS, 5 μM Nigericin, 0.5% DMSO, Low Control=25 ng/mL, LPS, 0.5% DMSO.
THP-1 cells were diluted to provide a suspension at a concentration of 1.0×10^6 cells/mL with the total volume of suspension required to enable the desired number of assay plates. The growth media was supplemented with PMA (5 ng/mL final concentration) and the cells were incubated at 37° C. under a humidified atmosphere of 5% CO2 for 40 h.
All media was carefully aspirated from each culture flask. The cells were washed carefully with 1×DPBS. The cells were then briefly digested with trypsin LE for 5 minutes at 23° C. and immediately resuspended in cell growth media. After resuspension, the cells were centrifuged at 1000 rpm for 3 minutes and the supernatant was discarded. The cells were resuspended in DPBS and once again centrifuged at 1000 rpm for 5 minutes. The supernatant was discarded and the cell pellet was resuspended in serum-free media supplemented with LPS (25 ng/mL final concentration) to enable the distribution of 30K THP-1 cells within 45 μL of media into each well of 384-well PDL-coated plates. The 384-well plates were then incubated at 37° C. under a humidified atmosphere of 5% CO2 for 2 h. Following this period, test compounds were dispensed by Tecan across the desired concentration range with all wells normalized to a final 0.5% DMSO concentration. The plates were then incubated at 37° C. under a humidified atmosphere of 5% CO2 for 1 h. Following this period, 5 μL of the 5 mg/mL nigericin stock solution was added to each of the appropriate wells and plates were centrifuged at 1000 rpm for 30 seconds. The plates were the immediately reintroduced to the incubator at 37° C. under a humidified atmosphere of 5% CO2 for 2 h. After this time, 35 μL/well of supernatant was collected and transferred into v-bottom plate and centrifuged at 1000 rpm for 1 minute. These supernatant aliquots were analyzed using an IL-Iβ detection kit as described below. If needed, the test samples could be snap frozen and stored at −80° C. until analyzed.
To prepare each ELISA plate, capture antibody (mAb Mt175) was diluted with PBS to a final concentration of 2 μg/mL and then 20 μL of this solution was added to each well of the ELISA plate. Each plate was allowed to incubate overnight at 4° C. The next day, the capture antibody solution was removed and discarded. Each ELISA plate was washed 4 times with PBST followed by the addition of 25 μL/well of blocking buffer (Licor-927-40010) supplemented with 0.1% Tween 20. […]
For orientation: In an ELISA, binding on a coated surface is turned into a signal by an enzyme label.

A value given as a limit tells only on which side of the number the result lay.

As for `O=C(CN1C(=O)c2ccc(C(F)(F)F)cc2C2(CC2)C1=O)Nc1ncc(F)cn1` [Example 15, 2-[1′,3′-dioxo-6′-(trifluoromethyl)spiro[cyclopropane-1,4′-isoquinoline]-2′-yl]-N-(5-fluoropyrimidin-2-yl)acetamide], the IC50 (THP-1, class symbol) was below 10000 nM and the IC50 (THP-1, numeric value) was 893 nM.

As to `Cc1cnc(NC(=O)CN2C(=O)c3ccc(Br)c(F)c3C3(CC3)C2=O)nc1` [Example 20, 2-(6′-bromo-5′-fluoro-1′,3′-dioxospiro[cyclopropane-1,4′-isoquinoline]-2′-yl)-N-(5-methylpyrimidin-2-yl)acetamide], the IC50 is below 10000 nM (THP-1, class symbol) and 261 nM (THP-1, numeric value).

Regarding `CCC(C(=O)Nc1ncc(F)cn1)N1C(=O)c2ccc(Br)cc2C2(CC2)C1=O` (stereo not drawn) [Example 23, 2-(6′-bromo-1′,3′-dioxospiro[cyclopropane-1,4′-isoquinoline]-2′-yl)-N-(5-fluoropyrimidin-2-yl)butanamide], the IC50 is, setting by setting: (THP-1, class symbol) below 10000 nM; (THP-1, numeric value) 2170 nM.
